# Measured values taken from PMC7297889, “In vivo absolute quantification of striatal and extrastriatal D2/3 receptors with [^123I]epidepride SPECT” (EJNMMI Research, 2020).
# Values joined by “and” are separate entries in the source; they are usually repeats but may differ in a detail not shown here. Equal entries are not always repeated.
# Assays:
# D2/3 receptors [1] = test: multi-injection SPECT protocol, 2T-5k full kinetic modeling; assay type: in vivo, rat; details: mean of 3 rats; for Kd: read-out: appKD
# Description: (§1) 18 male Mdr1a (P-glycoprotein) knock-out (KO) rats, weighing between 380 and 500 g, were employed in the study. Using this rat strain allowed us to study the kinetics of [^123I]epidepride independently of the potentially confounding effect of the P-glycoprotein [30–34]. Of these, 3 rats were employed in an in vivo multi-injection SPECT imaging protocol for absolute D2/3 receptor quantification (SPECT-MI in Table 1). Four rats were employed in an arterial plasma analysis for the study of plasma kinetics of the radiotracer and the estimation of the free parent radiotracer fraction (TLC in Table 1). Four rats were employed in a SPECT experiment with a partial D2/3 receptor saturation design for the determination of Bavail and appKd parameters from an in vivo Scatchard plot (SPECT-PSA in Table 1). Finally, 7 rats were employed in a preliminary study of the effect of a chronic haloperidol treatment on the Bavail and appKd of the D2/3 receptors in rats (SPECT-PSA_HAL for haloperidol-treated and SPECT-PSA_CON for control rats in Table 1, see Additional file 1).
# (§2) SPECT scans were performed with a U-SPECT-II camera (MiLabs, Utrecht, Netherlands). In rats that underwent SPECT scans with the multi-injection protocol, two polyethylene catheters (i.d. = 0.58 mm, o.d. = 0.96 mm) were inserted in the left femoral vein and artery for radiotracer administration and blood sampling, respectively. On the other hand, in rats that underwent SPECT scans for the partial saturation protocol, radiotracer injection was performed via a tail vein catheter. SPECT scans were performed under isoflurane anesthesia (3% for induction and 1–2% for maintenance). Body temperature was monitored during the scans and maintained at 37 ± 1 °C by means of a thermostatically controlled heating blanket.
# (§3) SPECT image reconstruction was performed using a pixel-ordered subset expectation maximization (P-OSEM, 0.4-mm voxel size, 4 iterations, 6 subsets) algorithm using MiLabs image reconstruction software. Radioactive decay correction was performed, while correction for attenuation or scatter was not. Following reconstruction, dynamic images from the partial saturation experiment were denoised with factor analysis (FA) using Pixies software (Apteryx, Issy-les-Moulineaux, France) as previously described. FA allows the decomposition of a dynamic signal into a few elementary components, termed factors. In this study, 3 factors were retained and the rest of the signal was discarded as noise. SPECT images were processed with PMOD software v3.7 (PMOD Technologies Ltd, Zurich, Switzerland). Averaged images corresponding to the ten first frames of the acquisition were co-registered to a magnetic resonance imaging (MRI) template integrated in PMOD [37]. Transformation matrices were then applied to dynamic images.
# A multi-injection protocol for full kinetic modeling of [^123I]epidepride was employed. The scan protocol began with a first injection of the radiotracer at a high-specific activity, followed by a second co-injection of [^123I]epidepride and the unlabeled compound at 180 min and a third injection of the unlabeled compound alone at 240 min. The overall scan protocol included 360 1-min frames (Fig. 1).
# The whole multi-injection study TAC data was fitted in with a two-tissue compartment five-parameter model (2T-5k), to estimate K1, k2, kon, koff, and Bavail as previously described. The free, non-metabolized radiotracer fraction in the plasma was used as the input function. During dynamic SPECT acquisitions, 40 arterial blood samples (of 25 μl each) were withdrawn after each radiotracer injection at regular time intervals. Radioactivity was measured in a gamma counting system and expressed in kBq/ml after calibration. […]
# D2/3 receptors [2] = test: in vivo partial saturation SPECT study (in vivo Scatchard plot); set-up: species or system rat; details: mean of 4 rats; for Kd: read-out: appKD
# Description: as §1, §2, §3
# A partial saturation protocol was employed to estimate Bavail and appKd as recently described for another D2/3 radiotracer based on the original description by Delforge et al., as optimized by Wimberley et al.. Briefly, co-injection of a dose of the unlabeled compound at doses that occupy 50–70% of the receptors allows to form a Scatchard plot when the specifically bound fraction of radiotracer (CS) is plotted against the ratio of CS to the non-displaceable binding at the same region (CS/CND). The intercept to the CS axis provides the Bavail and the inverse of the slope the appKd.
# In the partial saturation approach, the cerebellar TAC is employed as an approximation of the non-displaceable binding in the target brain VOIs. Given the differences in the concentration of this binding between the Cer and the target VOIs, as well as the presence of a non-negligible specific binding in the Cer with [^123I]epidepride, the cerebellar TAC has to be corrected. […]
# [3] = arterial plasma analysis: metabolite correction and plasma protein binding; assay type: in vivo; details: rat arterial plasma, 4 rats
# Description: as §1
# The whole multi-injection study TAC data was fitted in with a two-tissue compartment five-parameter model (2T-5k), to estimate K1, k2, kon, koff, and Bavail as previously described. The free, non-metabolized radiotracer fraction in the plasma was used as the input function. During dynamic SPECT acquisitions, 40 arterial blood samples (of 25 μl each) were withdrawn after each radiotracer injection at regular time intervals. Radioactivity was measured in a gamma counting system and expressed in kBq/ml after calibration. To estimate the plasma input function in in vivo SPECT experiments, only whole-blood radioactivity was measured individually and the free, non-metabolized radiotracer fraction was fitted using a model estimated in an independent experiment. Indeed, metabolite correction and plasma protein binding analysis for the estimation of radiotracer plasma input function was performed in an independent group of 4 rats, as previously described The analysis was performed in MATLAB software R2019 (Mathworks, USA).
# As described in the “Methods” section describing the multi-injection study protocol, in each dynamic brain SPECT study, only whole-arterial blood radioactivity was measured. The free, non-metabolized radiotracer fraction was estimated by fitting average data from an independent group of four rats in an experiment that was independent from the SPECT scan experiments. The parameters of the bi-exponential function describing the kinetics of the mean percent non-metabolized plasma radiotracer were A1 = 0.61, B1 = − 0.20, A2 = 0.27, B2 = − 0.006. Average percentage of radiotracer bound to plasma proteins was 22% (f1 = 0.22 ± 0.06). […]
# D2/3 receptors [4] = test: chronic haloperidol treatment, striatal D2/3 Bavail by [^123I]epidepride partial saturation SPECT; assay type: in vivo, rat; details: for increase in Bavail vs vehicle-treated group: haloperidol 1 mg/kg/day 28 days; for Bavail of [^123I]epidepride in haloperidol-treated group: haloperidol 1 mg/kg/day sc 28 days, scan 7 days after, n=3
# Description: as §1
# For this purpose, two groups of rats were treated with either haloperidol (1 mg/kg/day, n=3) or vehicle (n=4) for 28 days. A [^123I]epidepride SPECT scan using the partial saturation protocol was performed 7 days (a sufficient period for the complete elimination of haloperidol) after the end of the treatment period to assess neurochemical changes with respect to the D2/3 receptor. The radioactivity doses that were employed are presented in Table 1 (SPECT-PSA_HAL for haloperidol-treated and SPECT-PSA_CON for control rats). Statistical analysis of the difference in the quantitative parameter values between the groups was performed by means of a two-sample t test.
# Haloperidol was purchased from Sigma-Aldrich (Buchs, Switzerland). It was dissolved in dimethyl-sulfoxide (DMSO) 50% v/v in water. Osmotic pumps (Alzet, Durect, Cupertino, CA, USA) were employed to continuously deliver the treatment at a dose of 1 mg/kg/day over 28 days. For the pump implantation, rats were anesthetized with isoflurane (3% for induction and 1-2 % for maintenance). Body temperature was monitored during the scans and maintained at 37±1 °C by means of a thermostatically controlled heating blanket. An incision was performed in the lateral abdominal wall and a pump was subcutaneously implanted. Subcutaneous analgesia (0.02 mg/kg/8h sc; Temgesic, Reckitt Benckiser Pharmaceuticals Inc) was administered right before surgery and was continued per os in the drinking water for 48h. For the removal of the osmotic pumps, the same surgical procedure was performed after the end of the treatment period (28 days).
smiles,measurement,setting,value
CCN1CCC[C@H]1CNC(=O)c1cc(I)cc(OC)c1OC [[^123I]epidepride],Bavail,D2/3 receptors [1]; Amy,2.71 pmol/mL
same,k2,D2/3 receptors [1]; Amy,0.16 min⁻¹
same,koff,D2/3 receptors [1]; Amy,0.03 min⁻¹
same,Κ1,D2/3 receptors [1]; Amy,0.38 mL.cm^-3 .min-^1
same,Kd,D2/3 receptors [1]; Amy,0.36 nM
same,Bavail,D2/3 receptors [1]; CP,24.22 pmol/mL
same,k2,D2/3 receptors [1]; CP,0.10 min⁻¹
same,koff,D2/3 receptors [1]; CP,0.04 min⁻¹
same,Κ1,D2/3 receptors [1]; CP,0.69 mL.cm^-3 .min-^1
same,Kd,D2/3 receptors [1]; CP,0.22 nM
same,Bavail,D2/3 receptors [1]; Cer,2.02 pmol/mL
same,k2,D2/3 receptors [1]; Cer,0.20 min⁻¹
same,koff,D2/3 receptors [1]; Cer,0.02 min⁻¹
same,Κ1,D2/3 receptors [1]; Cer,0.66 mL.cm^-3 .min-^1
same,Kd,D2/3 receptors [1]; Cer,0.65 nM
same,Bavail,D2/3 receptors [1]; FC,20.67 pmol/mL
same,k2,D2/3 receptors [1]; FC,0.09 min⁻¹
same,koff,D2/3 receptors [1]; FC,0.03 min⁻¹
same,Κ1,D2/3 receptors [1]; FC,0.40 mL.cm^-3 .min-^1
same,Kd,D2/3 receptors [1]; FC,4.5 nM
same,Bavail,D2/3 receptors [1]; Hyp,3.64 pmol/mL
same,k2,D2/3 receptors [1]; Hyp,0.13 min⁻¹
same,koff,D2/3 receptors [1]; Hyp,0.05 min⁻¹
same,Κ1,D2/3 receptors [1]; Hyp,0.50 mL.cm^-3 .min-^1
same,Kd,D2/3 receptors [1]; Hyp,0.37 nM
same,Bavail,D2/3 receptors [1]; InfC,3.03 pmol/mL
same,k2,D2/3 receptors [1]; InfC,0.17 min⁻¹
same,koff,D2/3 receptors [1]; InfC,0.04 min⁻¹
same,Κ1,D2/3 receptors [1]; InfC,0.80 mL.cm^-3 .min-^1
same,Kd,D2/3 receptors [1]; InfC,0.18 nM
same,Bavail,D2/3 receptors [1]; NAc,10.18 pmol/mL
same,k2,D2/3 receptors [1]; NAc,0.10 min⁻¹
same,koff,D2/3 receptors [1]; NAc,0.04 min⁻¹
same,Κ1,D2/3 receptors [1]; NAc,0.53 mL.cm^-3 .min-^1
same,Kd,D2/3 receptors [1]; NAc,0.15 nM
same,Bavail,D2/3 receptors [1]; SupC,3.86 pmol/mL
same,k2,D2/3 receptors [1]; SupC,0.16 min⁻¹
same,koff,D2/3 receptors [1]; SupC,0.05 min⁻¹
same,Κ1,D2/3 receptors [1]; SupC,0.70 mL.cm^-3 .min-^1
same,Kd,D2/3 receptors [1]; SupC,0.28 nM
same,Bavail,D2/3 receptors [1]; VTA,3.77 pmol/mL
same,k2,D2/3 receptors [1]; VTA,0.14 min⁻¹
same,koff,D2/3 receptors [1]; VTA,0.04 min⁻¹
same,Κ1,D2/3 receptors [1]; VTA,0.57 mL.cm^-3 .min-^1
same,Kd,D2/3 receptors [1]; VTA,0.34 nM
same,Bavail,"D2/3 receptors [2]; Amy, fixed appKd",2.77 pmol/mL
same,Bavail,D2/3 receptors [2]; CP,21.25 pmol/mL
same,Kd,D2/3 receptors [2]; CP,0.08 nM
same,Bavail,"D2/3 receptors [2]; FC, fixed appKd",5.15 pmol/mL
same,Bavail,"D2/3 receptors [2]; Hyp, fixed appKd",3.85 pmol/mL
same,Bavail,"D2/3 receptors [2]; InfC, fixed appKd",4.46 pmol/mL
same,Bavail,D2/3 receptors [2]; NAc,11.75 pmol/mL
same,Kd,D2/3 receptors [2]; NAc,0.27 nM
same,Bavail,"D2/3 receptors [2]; SupC, fixed appKd",3.97 pmol/mL
same,Bavail,"D2/3 receptors [2]; VTA, fixed appKd",4.01 pmol/mL
same,fraction unbound,"[3]; male, Mdr1a (P-glycoprotein) knock-out, read-out: Average percentage of radiotracer bound to plasma proteins (converted)",0.78
same,A1 of bi-exponential function of mean percent non-metabolized plasma radiotracer,[3],0.61
same,A2 of bi-exponential function of mean percent non-metabolized plasma radiotracer,[3],0.27
same,f1,[3],0.22 ± 0.06
O=C(CCCN1CCC(O)(c2ccc(Cl)cc2)CC1)c1ccc(F)cc1 [haloperidol],increase in Bavail vs vehicle-treated group,"D2/3 receptors [4]; left CP, p = 0.07",17.9% and 17.97%
same,Bavail of [^123I]epidepride in haloperidol-treated group,D2/3 receptors [4]; left CP,25.67 ± 2.30 pmol/mL
same,increase in Bavail vs vehicle-treated group,"D2/3 receptors [4]; right CP, p = 0.12",13.8% and 13.84%
same,Bavail of [^123I]epidepride in haloperidol-treated group,D2/3 receptors [4]; right CP,25.33 ± 2.52 pmol/mL
